Test results as given in patent publication US7173063B1, “Topoisomerase poisons for the treatment of proliferative disorders” (Fred Hutchinson Cancer Research Center, priority 2000, dated 2007).

Assays:
purified Topo I = target: T1, purified Topo I (Homo sapiens, UniProt P11387); experiment: In vitro assay for DNA strand-break formation in the presence of purified Topo I; assay type: biochemical; settings: purified Topo I, in vitro; data not shown
T1 sequence (P11387 1-765): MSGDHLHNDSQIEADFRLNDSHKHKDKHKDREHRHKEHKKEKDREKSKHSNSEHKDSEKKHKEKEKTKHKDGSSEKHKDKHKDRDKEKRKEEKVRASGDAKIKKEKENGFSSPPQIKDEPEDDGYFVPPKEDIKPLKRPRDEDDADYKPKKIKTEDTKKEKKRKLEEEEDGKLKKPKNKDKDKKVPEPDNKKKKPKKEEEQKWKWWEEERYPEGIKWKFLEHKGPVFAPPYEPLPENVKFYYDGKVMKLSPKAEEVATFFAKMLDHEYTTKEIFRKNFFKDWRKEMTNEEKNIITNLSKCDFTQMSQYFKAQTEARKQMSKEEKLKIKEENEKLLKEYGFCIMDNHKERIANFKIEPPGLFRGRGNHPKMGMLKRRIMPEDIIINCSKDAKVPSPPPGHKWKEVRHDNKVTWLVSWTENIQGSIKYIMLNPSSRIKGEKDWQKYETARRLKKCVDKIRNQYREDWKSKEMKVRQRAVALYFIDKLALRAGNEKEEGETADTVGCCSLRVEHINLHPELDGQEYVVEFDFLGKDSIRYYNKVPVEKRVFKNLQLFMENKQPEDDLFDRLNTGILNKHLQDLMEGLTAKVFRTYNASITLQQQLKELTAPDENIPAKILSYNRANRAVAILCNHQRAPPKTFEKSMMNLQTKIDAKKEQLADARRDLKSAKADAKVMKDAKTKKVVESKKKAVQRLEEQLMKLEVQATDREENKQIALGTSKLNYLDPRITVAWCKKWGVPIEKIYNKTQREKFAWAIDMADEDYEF

yeast Topo I = target: T2, yeast Topo I (Saccharomyces cerevisiae, UniProt P04786); experiment: Toxicity in yeast overexpressing yeast Topo I (yTOP1) or ytop1-vac mutant; assay type: cell-based; settings: GAL promoter, galactose-induced, vs vector
T2 construct: expressed in transfected cells; host or cells: S. cerevisiae BY4705 (S288C background), plasmid pyTOP1 under the GAL promoter, vector pRS416
T2 sequence (P04786 1-769): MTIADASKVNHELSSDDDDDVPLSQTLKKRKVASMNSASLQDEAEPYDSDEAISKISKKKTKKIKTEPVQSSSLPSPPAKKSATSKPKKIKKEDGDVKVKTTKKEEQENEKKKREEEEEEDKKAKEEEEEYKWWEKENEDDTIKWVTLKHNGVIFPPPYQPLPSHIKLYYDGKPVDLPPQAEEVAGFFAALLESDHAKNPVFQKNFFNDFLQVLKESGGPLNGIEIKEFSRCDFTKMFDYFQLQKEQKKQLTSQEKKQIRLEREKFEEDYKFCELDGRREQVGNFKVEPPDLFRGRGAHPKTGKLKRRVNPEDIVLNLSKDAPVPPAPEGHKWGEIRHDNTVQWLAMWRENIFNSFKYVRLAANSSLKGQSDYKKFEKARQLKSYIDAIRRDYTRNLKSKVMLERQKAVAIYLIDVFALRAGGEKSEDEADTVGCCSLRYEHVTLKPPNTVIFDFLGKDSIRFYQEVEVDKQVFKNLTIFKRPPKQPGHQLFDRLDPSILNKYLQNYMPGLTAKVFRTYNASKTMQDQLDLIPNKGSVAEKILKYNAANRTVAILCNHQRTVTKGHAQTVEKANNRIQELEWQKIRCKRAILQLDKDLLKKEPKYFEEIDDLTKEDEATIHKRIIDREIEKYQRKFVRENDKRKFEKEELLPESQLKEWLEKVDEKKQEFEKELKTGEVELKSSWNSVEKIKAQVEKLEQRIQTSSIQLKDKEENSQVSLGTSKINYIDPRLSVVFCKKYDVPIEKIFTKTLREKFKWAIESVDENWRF
Text: The strains are derived from the A364a genetic background, with the exception of BY4705, which is derived from the S288C background. Gene disruptions were generated by PCR fragment directed replacement (Baudin, et al., Nucleic Acids Research 21: 3329–30 (1993), Guldener, et al., Nucleic Acids Research 24: 2519–24 (1996)). Yeast overexpressing topoisomerase II was constructed by a PCR fragment directed promoter replacement of the topoisomerase II promoter with the yeast GPD promoter flanked upstream by the URA3 marker. All strains (except BY4705) bear the pleitropic drug sensitizing mutations erg6, pdr1, and pdr3 (Balzi, et al., Journal of Bioenergetics & Biomembranes 27: 71–6 (1995), Delaveau, et al, Molecular & General Genetics 244: 501–11 (1994), Gaber, et al., Molecular & Cellular Biology 9: 3447–56 (1989), Saunders, et al., Canadian Journal of Genetics & Cytology, 24: 493–503 (1982). Subik, et al, Current Genetics 10: 665–70 (1986)). The haploid yeast strain BY4705 (Brachmann, et al., Yeast 14: 115–32 (1998)) was used in the experiments described in FIG. 5. Plasmids expressing yeast or human topoisomerase I genes under the GAL promoter (Knab, et al., Journal of Biological Chemistry 268: 22322–30 (1993). Knab, et al., Journal of Biological Chemistry 270: 6141–8 (1995)) were transformed into BY4705 using standard procedures.
Yeast toxicity assays were performed essentially as follows: Exponentially growing cultures of the appropriate strains were diluted in synthetic complete media to a concentration of 7.4×10^4 cells/mL, and aliquots (135 μL) were transferred to each well of clear flat-bottomed 96 well plates. Compounds were added in duplicate or triplicate as 15 μL of the appropriate dilution in 5% DMSO. A 15 μL portion of 5% DMSO was added to control wells. […] Cell growth (OD660) in treated wells was plotted as a percentage of the growth in at least four averaged solvent control wells for the same strain. Camptothecin sodium salt (camptothecin Na) was the agent used in all yeast assays as standard.
In this regard, the sensitivity of yeast strains overexpressing either human or yeast topoisomerase I genes (hTOP1 or yTOP1, respectively) under the control of the inducible GAL promoter (see, for example, Knab, et al., Journal of Biological Chemistry 268: 22322–30 (1993); and Knab, et al., Journal of Biological Chemistry 270: 6141–8 (1995)) were used. Additionally, the sensitivity of yeast overexpressing the Topo I-VAC mutant enzyme, containing two amino acid substitutions (htop1-vac and ytop1-vac) that render topoisomerase I insensitive to the action of camptothecin were also examined (see, for example, Knab, et al., Journal of Biological Chemistry 268: 22322–30 (1993); and Knab, et al., Journal of Biological Chemistry 270: 6141–8 (1995)).

[1] = Cell based assays (toxicity, unspecified)

| SMILES | strand-break induction (purified Topo I) | effect of yTOP1 overexpression on toxicity (yeast Topo I) | IC50 compared to camptothecin [1] |
| --- | --- | --- | --- |
| O=c1c(Cl)c(Cl)cnn1CCCl [compound IIa] | did not detect strand-break induction | accentuates the toxicity | higher IC50's |
| O=C(CCl)Nc1ccc(C(=O)N/N=C/c2ccc(Cl)cc2)cc1 [compound Ia] | did not detect strand-break induction | Little or no accentuation | higher IC50's |
